Results on six molecules are retold here after EP0459830A1, “Pharmacologically active CNS compounds” (THE WELLCOME FOUNDATION LIMITED, priority 1990, dated 1991).

As a reminder, the IC50 is the point on the concentration scale where inhibition reaches its midpoint.

Test [1] has as its system veratrine-evoked release of glutamate from rat brain slices. The experiment in a line: veratrine-evoked release of glutamate from rat brain slices. The note with it: read-out: IC50(μM) Glutamate Release (P95 limits). The test is classed as cell-based. As for the experimental part:
(§1) Compounds of formula (Ia) were tested for their effect on veratrine-evoked release of glutamate from rat brain slices according to the protocol described in Epilepsia 27(5): 490-497, 1986. The protocol for testing for inhibition of DHFR activity was a modification of that set out in Biochemical Pharmacology Vol.20 pp 561-574, 1971.
(§2) The results are given in Table 1, the IC₅₀ being the concentration of compound to […] 50% of DHFR enzyme activity.

Another test concerns the target T1, Rat Liver DHFR (Rattus norvegicus, UniProt Q920D2).
T1 construct: from tissue; host or cells: rat liver
T1 sequence (Q920D2 1-187): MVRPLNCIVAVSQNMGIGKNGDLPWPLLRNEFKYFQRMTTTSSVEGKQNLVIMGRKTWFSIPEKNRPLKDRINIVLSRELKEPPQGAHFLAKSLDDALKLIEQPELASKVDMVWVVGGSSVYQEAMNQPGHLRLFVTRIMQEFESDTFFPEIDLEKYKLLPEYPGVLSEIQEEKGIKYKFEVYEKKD
Put plainly: inhibition of DHFR activity. It is filed as biochemical. The note with it: rat liver DHFR enzyme activity; read-out: IC50(μM) Rat Liver DHFR (P95 limits). As for the experimental part: as §1, §2

Test [2] concerns release of the excitatory amino acids, glutamate and aspartate. The conditions noted are these: Leach et al Epilepsia 27, 490-497 1986; Miller et al 1987; cited from earlier work.

Each structure is given as a SMILES string.

Turning to `Cc1c(N)nc(N)nc1-c1ccc(Cl)cc1` [*, 2,4-Diamino-5-methyl-6-(4-chlorophenyl)pyrimidine], the half-maximal inhibitory concentration (IC50) in test [1] is over 10 µM; on Rat Liver DHFR, over 55 µM.

On to `Nc1cc(-c2ccccc2Cl)nc(N)n1` [Example 2, 2,4-Diamino-6-(2-chlorophenyl)pyrimidine], for which the IC50 in test [1] is 10 µM; at Rat Liver DHFR it was over 100 µM.

Consider `Nc1cc(-c2cccc3ccccc23)nc(N)n1` [Example 4, 2,4-Diamino-6-(1-naphthyl)pyrimidine], for which the IC50 in test [1] was over 10 µM; on Rat Liver DHFR, 100 µM.

On to `Nc1cc(-c2cccc(Cl)c2Cl)nc(N)n1` [Example 1, 2,4-Diamino-6-(2,3-dichlorophenyl)pyrimidine], for which the IC50 is 10 µM in test [1] and under 100 µM on Rat Liver DHFR.

Take `Nc1cc(-c2ccc(Cl)cc2Cl)nc(N)n1` [Example 3, 2,4-Diamino-6-(2,4-Dichlorophenyl)pyrimidine]: the IC50 in test [1] is over 10 µM; on Rat Liver DHFR, under 100 µM.

With `Nc1nnc(-c2cccc(Cl)c2Cl)c(N)n1` [lamotrigine, 3,5-diamino-6-(2,3-dichlorophenyl)-1,2,4-triazine], the “inhibition of release of glutamate and aspartate” value in test [2] was “inhibit the release of the excitatory amino acids, glutamate and aspartate”.
